Data: patent publication US6207399A, “Methods of determining endogenous thrombin potential (ETP) and thrombin substrates for use in said methods” (Hemker; Hendrik Coenraad, priority 1995, dated 2001)
Peptide text beside a SMILES is read from it. * marks the point of attachment. pNA = O=[N+]([O-])c1ccc(N*)cc1

Assays:
factor Xa = molecular target: T1, factor Xa (Homo sapiens, UniProt P00742); test: Kinetic parameters of hydrolysis of the substrates by factor Xa in buffer A at 37° C. (Example 4, Table 3); type: biochemical; settings: buffer A, 37° C., 50 nM factor Xa
T1 construct: human factor Xa samples; gift of Dr. T. Lindhout (University of Limburg, Maastricht)
T1 sequence (P00742 41-179 limits assumed): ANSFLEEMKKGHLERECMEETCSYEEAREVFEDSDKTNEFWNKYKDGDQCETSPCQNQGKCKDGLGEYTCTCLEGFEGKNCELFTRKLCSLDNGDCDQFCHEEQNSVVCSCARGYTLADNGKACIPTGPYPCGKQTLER
T1 sequence (P00742 235-488 limits assumed): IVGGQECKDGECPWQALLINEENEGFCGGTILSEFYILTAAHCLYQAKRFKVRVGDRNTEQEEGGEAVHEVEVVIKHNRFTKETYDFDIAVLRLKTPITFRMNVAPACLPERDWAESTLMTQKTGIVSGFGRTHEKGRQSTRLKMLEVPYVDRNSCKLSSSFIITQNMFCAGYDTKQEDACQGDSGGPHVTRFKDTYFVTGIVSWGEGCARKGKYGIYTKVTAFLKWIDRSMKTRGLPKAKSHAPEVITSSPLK
Procedure: (§1) Kinetic parameters: The hydrolysis experiments were run in buffer A at 37° C. The liberation of p-nitroaniline was monitored at 405 nm in a dual wavelength (405-546 nm) spectrophotometer made in our workshop, using a personal computer for data recording. In a polystyrene microcuvette (total volume 500 μL), buffer A and substrate solution were added to obtain a final substrate concentration between 200 to 2000 μM. After 5 min of incubation at 37° C., enzyme solution was added to achieve a final concentration between 0.5 to 50 nM. The measurement was carried out at 37° C. in a thermostated cuvette-holder. The Michaelis constant (Km) and the catalytic constant (kcat) were obtained by measuring the initial reaction velocities at different substrate concentrations. The data obtained were fitted by linear regression on the Michaelis-Menten equation.
(§2) Kinetic parameters: The Km and kcat values for each substrate were determined at an enzyme concentration of 0.5-50 nM (thrombin) and 50 nM factor Xa. From the initial reaction velocities, measured for at least six substrate concentrations between 200 and 2000 μM, the Km and kcat values were calculated by linear regression on the Michaelis-Menten curve. Table 3 gives an overview of the kinetic parameters of the different substrates hydrolyzed by thrombin and by factor Xa in buffer A.

[1] = test system: thrombin generation in tissue factor triggered plasma; test: Manual determination of thrombin generation in plasma (subsampling method) and calculated prothrombinase activity; type: biochemical, human; settings: for influence on the prothrombinase complex / coagulation cascade: calculated from decay constants and manual thrombin generation curves
Procedure: Manual determination of thrombin generation in plasma: Extrinsic pathway: To 480 μL defibrinated plasma were added: 172 μL buffer A which contains the substrate at concentrations between 0 to 2000 μM and 20 μL of a 54 μM phospholipid solution (final concentration: 1.5 μM). After incubation of 4 min at 37° C., 24 μL tissue factor (undiluted) was added. Thrombin formation started at zero time by adding 24 μL of a 0.5 M CaCl2 solution (final concentration: 16.67 mM). At regular time intervals of 12 s samples of 10 μL were subsampled as described above. From the amidolytic activities thus obtained, the thrombin generation curve can be drawn. […] Intrinsic pathway: To 480 μL defibrinated plasma were added: 168 μL buffer A which contains the substrate at concentrations between 0 to 1000 μM and 48 μL Actin FS (undiluted). This mixture was intensively mixed and incubated for 4 min at 37° C. Thrombin generation was started at zero time by adding 24 μL of a 0.5 M CaCl2 solution (final concentration: 16.67 mM).
Influence of the substrate on the prothrombinase-complex: With the obtained decay constants and from the curves obtained by the subsampling method we calculated the course of prothrombin conversion and the course of prothrombinase concentration.
Manual determination of thrombin generation in plasma: Extrinsic pathway: To 480 μL defibrinated plasma were added: 172 μL buffer A which contained the substrate at concentrations between 0 to 2000 μM and 20 μL of a 54 μM phospholipid solution (final concentration: 1.5 μM). After incubation for 4 min at 37° C., 24 μL tissue factor (undiluted) was added. Thrombin formation started at zero time by adding 24 μL of a 0.5 M CaCl2 solution (final concentration: 16.67 mM). At regular time intervals of 12 s samples of 10 μL were subsampled as described above. From the amidolytic activities thus obtained, the thrombin generation curve can be drawn.
Influence of the substrate on the prothrombinase-compzex: With the obtained decay constants and from the curves obtained by the subsampling method we calculated the course of prothrombin conversion and the course of prothrombinase concentration.

thrombin = thrombin (Homo sapiens, UniProt P00734); test: Kinetic parameters of hydrolysis of the substrates by thrombin in buffer A at 37° C. (Example 4, Table 3); type: biochemical; parameters: Pure human α-thrombin; gift of Dr. T. Lindhout (University of Limburg, Maastricht); settings: buffer A, 37° C.
Procedure: as §1, §2

euglobulin thrombin = molecular target: T2, euglobulin thrombin (Homo sapiens, UniProt P00734); test: Decay constants of thrombin in plasma; type: biochemical
T2 construct: The euglobulin thrombin fraction was prepared from defibrinated human plasma; from tissue; host or cells: defibrinated human plasma (euglobulin fraction, acid precipitation, method of Josso and Prou-Wartelle)
Procedure: (§3) To this mixture was added 10 μL of a thrombin preparation to achieve a final concentration of 100 nM. At regular time intervals (5-10 s) 10 μL samples were subsampled into 490 μL buffer B which contained 200 μM of S2238 to determine thrombin activity. After 2 min the reaction was stopped by adding 300 μL 1M citric acid. The moment of sampling and stopping were recorded on a personal computer with pushbutton-equipped pipettes. The optical density was then read at 405 nm and the obtained amidolytic activities were used to calculate the decay constants. The obtained decay constant is the sum of the decay constants of the reaction of thrombin with antithrombin III (k1) and α2 -macroglobulin (k2).
as §3, with “Decay constants of thrombin in plasma: To 120 μL defibrinated plasma was added: 50 μL of buffer A which contained the substances to be tested. To” for “To”, “was” for “was then”

CC(C)[C@H](NC(=O)OCCS(C)(=O)=O)C(=O)N[C@@H](CCCNC(=N)N)C(=O)Nc1ccc([N+](=O)[O-])cc1.Cl [Msc-Val-Arg-pNA.HCl]
Factor Xa kcat (factor Xa): 4.69 s⁻¹
Factor Xa kcat /Km (factor Xa): 491 M/s
Km (factor Xa): 9550 µM
AA: amidolytic activity (maximum) ([1]; [S] 200 μM): 388.15 mOD/min
PT: prothrombinase concentration (maximum) ([1]; [S] 200 μM): 1119 mOD/min
T: thrombin concentration (maximum) ([1]; [S] 200 μM): 371.24 mOD/min
t: time point at which maximum of amidolytic activity is achieved ([1]; [S] 200 μM): 60 s
t: time point at which maximum of prothrombinase concentration is achieved ([1]; [S] 200 μM): 24 s
t: time point at which maximum of thrombin concentration is achieved ([1]; [S] 200 μM): 60 s
k2,M : k2 determined by the subsampling method ([1]; [S] 200 μM in plasma): 0.198 min⁻¹
AA: amidolytic activity (maximum) ([1]; [S] 500 μM): 387.15 mOD/min
PT: prothrombinase concentration (maximum) ([1]; [S] 500 μM): 1090 mOD/min
T: thrombin concentration (maximum) ([1]; [S] 500 μM): 374.80 mOD/min
t: time point at which maximum of amidolytic activity is achieved ([1]; [S] 500 μM): 60 s
t: time point at which maximum of prothrombinase concentration is achieved ([1]; [S] 500 μM): 24 s
t: time point at which maximum of thrombin concentration is achieved ([1]; [S] 500 μM): 60 s
k2,M : k2 determined by the subsampling method ([1]; [S] 500 μM in plasma): 0.178 min⁻¹
AA: amidolytic activity (maximum) ([1]; [S] 1000 μM): 456.42 mOD/min
PT: prothrombinase concentration (maximum) ([1]; [S] 1000 μM): 1346 mOD/min
T: thrombin concentration (maximum) ([1]; [S] 1000 μM): 443.82 mOD/min
t: time point at which maximum of amidolytic activity is achieved ([1]; [S] 1000 μM): 60 s
t: time point at which maximum of prothrombinase concentration is achieved ([1]; [S] 1000 μM): 24 s
t: time point at which maximum of thrombin concentration is achieved ([1]; [S] 1000 μM): 60 s
k2,M : k2 determined by the subsampling method ([1]; [S] 1000 μM in plasma): 0.144 min⁻¹
influence on the prothrombinase complex / coagulation cascade [1]: no inhibition of the prothrombinase activity
Km (thrombin): 882 µM
Thrombin kcat (thrombin): 0.79 s⁻¹
Thrombin kcat /Km (thrombin): 894 M/s
(k1,corr) = k1,corr divided by μM AT-III (euglobulin thrombin; [S] 200 μM in plasma): 18300 M⁻¹ s⁻¹
k1,corr : k1 after correcting for k2,M and 0.170 (euglobulin thrombin; [S] 200 μM in plasma): 1.590 min⁻¹
k1 : AT-III dependent decay of thrombin (euglobulin thrombin; [S] 200 μM in plasma): 1.729 min⁻¹
k2 : α2 M dependent decay of thrombin (euglobulin thrombin; [S] 200 μM in plasma): 0.229 min⁻¹
koverall (euglobulin thrombin; [S] 200 μM in plasma): 1.958 min⁻¹
t1/2 (euglobulin thrombin; [S] 200 μM in plasma): 21.24 s
(k1,corr) = k1,corr divided by μM AT-III (euglobulin thrombin; [S] 500 μM in plasma): 16600 M⁻¹ s⁻¹
k1,corr : k1 after correcting for k2,M and 0.170 (euglobulin thrombin; [S] 500 μM in plasma): 1.444 min⁻¹
k1 : AT-III dependent decay of thrombin (euglobulin thrombin; [S] 500 μM in plasma): 1.614 min⁻¹
k2 : α2 M dependent decay of thrombin (euglobulin thrombin; [S] 500 μM in plasma): 0.178 min⁻¹
koverall (euglobulin thrombin; [S] 500 μM in plasma): 1.792 min⁻¹
t1/2 (euglobulin thrombin; [S] 500 μM in plasma): 23.22 s
(k1,corr) = k1,corr divided by μM AT-III (euglobulin thrombin; [S] 1000 μM in plasma): 9100 M⁻¹ s⁻¹
k1,corr : k1 after correcting for k2,M and 0.170 (euglobulin thrombin; [S] 1000 μM in plasma): 0.790 min⁻¹
k1 : AT-III dependent decay of thrombin (euglobulin thrombin; [S] 1000 μM in plasma): 0.980 min⁻¹
k2 : α2 M dependent decay of thrombin (euglobulin thrombin; [S] 1000 μM in plasma): 0.124 min⁻¹
koverall (euglobulin thrombin; [S] 1000 μM in plasma): 1.104 min⁻¹
t1/2 (euglobulin thrombin; [S] 1000 μM in plasma): 37.70 s

CC(C)[C@H](NC(=O)CNC(=O)CNC(=O)[C@@H](N)CCC(=O)O)C(=O)N[C@@H](CCCNC(=N)N)C(=O)Nc1ccc([N+](=O)[O-])cc1 [2HCl.H-Glu-Gly-Gly-Val-Arg-pNA] (H-EGGVR-pNA)
Factor Xa kcat (factor Xa): 0.42 s⁻¹
Factor Xa kcat /Km (factor Xa): 192 M/s
Km (factor Xa): 2190 µM
AA: amidolytic activity (maximum) ([1]; [S] 200 μM): 350.62 mOD/min
PT: prothrombinase concentration (maximum) ([1]; [S] 200 μM): 1086 mOD/min
T: thrombin concentration (maximum) ([1]; [S] 200 μM): 335.47 mOD/min
t: time point at which maximum of amidolytic activity is achieved ([1]; [S] 200 μM): 60 s
t: time point at which maximum of prothrombinase concentration is achieved ([1]; [S] 200 μM): 24 s
t: time point at which maximum of thrombin concentration is achieved ([1]; [S] 200 μM): 60 s
k2,M : k2 determined by the subsampling method ([1]; [S] 200 μM in plasma): 0.220 min⁻¹
AA: amidolytic activity (maximum) ([1]; [S] 500 μM): 376.42 mOD/min
PT: prothrombinase concentration (maximum) ([1]; [S] 500 μM): 1122 mOD/min
T: thrombin concentration (maximum) ([1]; [S] 500 μM): 359.48 mOD/min
t: time point at which maximum of amidolytic activity is achieved ([1]; [S] 500 μM): 60 s
t: time point at which maximum of prothrombinase concentration is achieved ([1]; [S] 500 μM): 24 s
t: time point at which maximum of thrombin concentration is achieved ([1]; [S] 500 μM): 60 s
k2,M : k2 determined by the subsampling method ([1]; [S] 500 μM in plasma): 0.192 min⁻¹
AA: amidolytic activity (maximum) ([1]; [S] 1000 μM): 409.85 mOD/min
PT: prothrombinase concentration (maximum) ([1]; [S] 1000 μM): 1149 mOD/min
T: thrombin concentration (maximum) ([1]; [S] 1000 μM): 396.23 mOD/min
t: time point at which maximum of amidolytic activity is achieved ([1]; [S] 1000 μM): 60 s
t: time point at which maximum of prothrombinase concentration is achieved ([1]; [S] 1000 μM): 24 s
t: time point at which maximum of thrombin concentration is achieved ([1]; [S] 1000 μM): 60 s
k2,M : k2 determined by the subsampling method ([1]; [S] 1000 μM in plasma): 0.169 min⁻¹
influence on the prothrombinase complex / coagulation cascade [1]: no inhibition of the prothrombinase activity
Km (thrombin): 1010 µM
Thrombin kcat (thrombin): 0.55 s⁻¹
Thrombin kcat /Km (thrombin): 542 M/s
(k1,corr) = k1,corr divided by μM AT-III (euglobulin thrombin; [S] 200 μM in plasma): 20380 M⁻¹ s⁻¹
k1,corr : k1 after correcting for k2,M and 0.170 (euglobulin thrombin; [S] 200 μM in plasma): 1.769 min⁻¹
k1 : AT-III dependent decay of thrombin (euglobulin thrombin; [S] 200 μM in plasma): 1.946 min⁻¹
k2 : α2 M dependent decay of thrombin (euglobulin thrombin; [S] 200 μM in plasma): 0.213 min⁻¹
koverall (euglobulin thrombin; [S] 200 μM in plasma): 2.159 min⁻¹
t1/2 (euglobulin thrombin; [S] 200 μM in plasma): 19.26 s
(k1,corr) = k1,corr divided by μM AT-III (euglobulin thrombin; [S] 500 μM in plasma): 19150 M⁻¹ s⁻¹
k1,corr : k1 after correcting for k2,M and 0.170 (euglobulin thrombin; [S] 500 μM in plasma): 1.662 min⁻¹
k1 : AT-III dependent decay of thrombin (euglobulin thrombin; [S] 500 μM in plasma): 1.733 min⁻¹
k2 : α2 M dependent decay of thrombin (euglobulin thrombin; [S] 500 μM in plasma): 0.291 min⁻¹
koverall (euglobulin thrombin; [S] 500 μM in plasma): 2.024 min⁻¹
t1/2 (euglobulin thrombin; [S] 500 μM in plasma): 21.04 s
(k1,corr) = k1,corr divided by μM AT-III (euglobulin thrombin; [S] 1000 μM in plasma): 16400 M⁻¹ s⁻¹
k1,corr : k1 after correcting for k2,M and 0.170 (euglobulin thrombin; [S] 1000 μM in plasma): 1.427 min⁻¹
k1 : AT-III dependent decay of thrombin (euglobulin thrombin; [S] 1000 μM in plasma): 1.594 min⁻¹
k2 : α2 M dependent decay of thrombin (euglobulin thrombin; [S] 1000 μM in plasma): 0.172 min⁻¹
koverall (euglobulin thrombin; [S] 1000 μM in plasma): 1.766 min⁻¹
t1/2 (euglobulin thrombin; [S] 1000 μM in plasma): 23.56 s
